Measured values as given in ChEMBL document CHEMBL4507326, “Data for DCP probe TP-030-2” (2021).

Columns and labels:
[1] = target: Tyrosine-protein kinase BTK (Homo sapiens, UniProt Q06187); test: BTK(BTK1CGF1) Takeda global kinase panel
[2] = target: L-type calcium channel, benzothiazepine site (Cav1.2 alpha-1C) (Homo sapiens, UniProt Q13936); test: Inhibition of Calcium Channel L-Type, Benzothiazepine at 10 µM in the Eurofins-Panlabs radioligand binding assay (Eurofins_assay_214510); design: ligand concentration 2 nM, non-specific ligand with concentration 10 µM Diltiazem, incubation time 3h, incubation temperature 4 °C; conditions: male, Wistar, rat, rat whole brain preparation, probe [3H] Diltiazem; compound concentration 10 uM; target entry is the homologue from another species
[3] = target: Insulin receptor (Homo sapiens, UniProt P06213); test: InSR(INSRLGY1) Takeda global kinase panel
[4] = GPCRScan assay: inhibition of GABA/PBR; design: species or system Rattus norvegicus; radioligand conc. used [nm] 0.3 – 2.0, parental cells brain tissue
[5] = target: Receptor tyrosine-protein kinase erbB-4 (Homo sapiens, UniProt Q15303); test: HER4(ERB4CGF1) Takeda global kinase panel
[6] = target: Serine/threonine-protein kinase SIK3 (Homo sapiens, UniProt Q9Y2K2); test: QSK(SIK3LGP1) Takeda global kinase panel
[7] = target: Muscarinic acetylcholine receptor M2 (Homo sapiens) (UniProt P08172); conditions: Compound concentration 10.0 uM
Chain of Muscarinic acetylcholine receptor M2 (Homo sapiens) (P08172 whole entry): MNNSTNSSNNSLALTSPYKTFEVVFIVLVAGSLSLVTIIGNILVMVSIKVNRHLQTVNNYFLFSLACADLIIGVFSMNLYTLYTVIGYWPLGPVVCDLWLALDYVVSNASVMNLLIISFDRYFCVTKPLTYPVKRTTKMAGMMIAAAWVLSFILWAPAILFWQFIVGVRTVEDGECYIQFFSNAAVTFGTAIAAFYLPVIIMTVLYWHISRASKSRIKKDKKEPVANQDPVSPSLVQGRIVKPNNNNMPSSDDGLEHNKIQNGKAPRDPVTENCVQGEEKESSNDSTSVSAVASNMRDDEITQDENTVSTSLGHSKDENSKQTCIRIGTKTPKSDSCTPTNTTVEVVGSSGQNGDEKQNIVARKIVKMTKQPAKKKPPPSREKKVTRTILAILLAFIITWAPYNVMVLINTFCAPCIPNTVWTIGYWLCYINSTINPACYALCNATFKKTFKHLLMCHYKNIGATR

[8] = target: Mitogen-activated protein kinase 6 (Homo sapiens, UniProt Q16659); test: ERK3(MAP6LHY1) Takeda global kinase panel
[9] = target: 5-hydroxytryptamine receptor 3A (Homo sapiens) (UniProt P46098); conditions: Compound concentration 10.0 uM
[10] = target: 5-hydroxytryptamine receptor 2C (Homo sapiens) (UniProt P28335); conditions: Compound concentration 10.0 uM
Chain of 5-hydroxytryptamine receptor 2C (Homo sapiens) (P28335 whole entry): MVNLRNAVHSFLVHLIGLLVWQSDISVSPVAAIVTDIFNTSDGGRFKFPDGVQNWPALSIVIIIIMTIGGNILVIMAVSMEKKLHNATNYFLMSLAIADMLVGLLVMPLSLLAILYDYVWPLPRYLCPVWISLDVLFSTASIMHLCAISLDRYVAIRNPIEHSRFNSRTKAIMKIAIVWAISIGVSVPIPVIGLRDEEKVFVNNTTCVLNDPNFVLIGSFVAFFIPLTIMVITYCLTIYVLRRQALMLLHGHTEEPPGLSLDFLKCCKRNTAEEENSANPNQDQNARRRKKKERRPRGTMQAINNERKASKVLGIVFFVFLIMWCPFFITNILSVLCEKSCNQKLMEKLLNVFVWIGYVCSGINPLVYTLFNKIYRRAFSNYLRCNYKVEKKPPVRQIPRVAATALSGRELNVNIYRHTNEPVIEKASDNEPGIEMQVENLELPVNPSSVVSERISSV

[11] = target: G protein-coupled receptor kinase 5 (Homo sapiens, UniProt P34947); test: GRK5(GRK5LGP1) Takeda global kinase panel
Chain of G protein-coupled receptor kinase 5 (P34947 whole entry, the tested form may be a part): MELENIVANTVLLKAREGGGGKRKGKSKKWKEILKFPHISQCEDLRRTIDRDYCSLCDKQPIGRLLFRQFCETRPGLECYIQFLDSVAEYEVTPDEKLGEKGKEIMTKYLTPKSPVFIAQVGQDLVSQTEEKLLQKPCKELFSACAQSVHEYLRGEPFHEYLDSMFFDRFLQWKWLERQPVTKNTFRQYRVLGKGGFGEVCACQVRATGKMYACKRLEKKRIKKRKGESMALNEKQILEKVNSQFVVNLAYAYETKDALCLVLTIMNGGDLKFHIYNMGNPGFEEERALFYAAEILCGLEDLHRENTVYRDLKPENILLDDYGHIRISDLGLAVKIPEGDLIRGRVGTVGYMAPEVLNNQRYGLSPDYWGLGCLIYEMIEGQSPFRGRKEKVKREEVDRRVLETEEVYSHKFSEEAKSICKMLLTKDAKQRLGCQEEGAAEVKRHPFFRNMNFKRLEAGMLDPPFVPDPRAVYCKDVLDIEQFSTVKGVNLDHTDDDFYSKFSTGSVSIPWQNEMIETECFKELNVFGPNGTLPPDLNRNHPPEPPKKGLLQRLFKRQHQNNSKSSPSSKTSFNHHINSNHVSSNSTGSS

[12] = target: Ankyrin repeat and protein kinase domain-containing protein 1 (Homo sapiens, UniProt Q8NFD2); test: SgK288(ANK1LGRL) Takeda global kinase panel
[13] = target: Protein kinase C alpha type (Homo sapiens, UniProt P17252); test: PKCalpha(PRKALGY1) Takeda global kinase panel
[14] = target: Serine/threonine-protein kinase SBK1 (Homo sapiens, UniProt Q52WX2); test: SBK(SBK1LGY1) Takeda global kinase panel
Chain of Serine/threonine-protein kinase SBK1 (Q52WX2 whole entry): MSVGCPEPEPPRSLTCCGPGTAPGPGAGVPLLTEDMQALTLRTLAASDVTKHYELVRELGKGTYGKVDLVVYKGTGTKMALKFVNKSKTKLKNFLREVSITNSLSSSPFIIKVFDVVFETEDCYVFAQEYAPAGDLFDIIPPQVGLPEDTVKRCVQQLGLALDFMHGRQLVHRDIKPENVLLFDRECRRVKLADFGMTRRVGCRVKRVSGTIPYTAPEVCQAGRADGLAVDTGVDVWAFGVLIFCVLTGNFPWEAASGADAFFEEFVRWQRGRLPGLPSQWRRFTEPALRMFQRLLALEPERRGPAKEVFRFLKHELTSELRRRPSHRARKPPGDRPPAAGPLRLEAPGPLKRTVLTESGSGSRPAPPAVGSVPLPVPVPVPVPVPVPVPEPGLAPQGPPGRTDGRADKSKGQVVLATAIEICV

[15] = target: Muscarinic acetylcholine receptor M2 (Homo sapiens) (UniProt P08172); conditions: Compound concentration 10.0 uM; remark: listed apart in the source
[16] = target: Glycogen synthase kinase-3 beta (Homo sapiens, UniProt P49841); test: GSK3beta(GS3BLGM1) Takeda global kinase panel
[17] = species on record: Mus musculus; test: Inhibition of Phorbol Ester at 10 µM in the Eurofins-Panlabs radioligand binding assay (Eurofins_assay_264500); design: ligand concentration 3 nM; conditions: Compound concentration 10.0 uM
[18] = target: Casein kinase II subunit alpha (Homo sapiens, UniProt P68400); test: CK2alpha1(C2A1LGF1) Takeda global kinase panel
[19] = target: Beta-2 adrenergic receptor (Homo sapiens) (UniProt P07550); conditions: Compound concentration 10.0 uM
[20] = target: Tyrosine-protein kinase TXK (Homo sapiens, UniProt P42681); test: TXK(TXK1CGD5) Takeda global kinase panel
[21] = target: Beta-adrenergic receptor kinase 1 (Homo sapiens, UniProt P25098); test: BARK1 [GRK2(ADR1LGG5)] Takeda global kinase panel
[22] = target: Serine/threonine-protein kinase DCLK3 (Homo sapiens, UniProt Q9C098); test: DCAMKL3(DCL3LGP1) Takeda global kinase panel
Chain of Serine/threonine-protein kinase DCLK3 (Q9C098 whole entry): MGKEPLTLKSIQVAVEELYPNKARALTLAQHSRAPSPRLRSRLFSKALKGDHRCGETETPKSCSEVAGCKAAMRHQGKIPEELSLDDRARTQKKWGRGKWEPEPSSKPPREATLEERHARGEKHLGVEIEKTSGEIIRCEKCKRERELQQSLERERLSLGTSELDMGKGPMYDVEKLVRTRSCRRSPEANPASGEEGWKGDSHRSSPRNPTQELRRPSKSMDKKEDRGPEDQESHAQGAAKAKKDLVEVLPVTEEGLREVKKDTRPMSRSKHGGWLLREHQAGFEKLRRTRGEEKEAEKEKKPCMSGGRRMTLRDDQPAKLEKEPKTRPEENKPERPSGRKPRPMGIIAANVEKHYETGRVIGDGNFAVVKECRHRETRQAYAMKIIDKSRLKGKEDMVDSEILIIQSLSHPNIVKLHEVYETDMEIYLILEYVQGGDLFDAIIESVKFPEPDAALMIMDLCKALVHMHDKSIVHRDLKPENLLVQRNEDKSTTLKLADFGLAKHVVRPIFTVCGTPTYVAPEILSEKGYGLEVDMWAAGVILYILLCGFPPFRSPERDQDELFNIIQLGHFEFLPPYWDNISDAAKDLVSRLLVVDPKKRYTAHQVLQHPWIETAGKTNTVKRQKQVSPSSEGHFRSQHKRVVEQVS

[23] = target: Dual specificity mitogen-activated protein kinase kinase 6 (Homo sapiens, UniProt P52564); test: MKK6 [MAP2K6(M2K6LGF1)] Takeda global kinase panel
[24] = target: Delta-type opioid receptor (Homo sapiens) (UniProt P41143); conditions: Compound concentration 10.0 uM
[25] = target: Serine/threonine-protein kinase Nek8 (Homo sapiens, UniProt Q86SG6); test: Nek8(NEK8LGRI) Takeda global kinase panel
[26] = species on record: Oryctolagus cuniculus; conditions: Compound concentration 10.0 uM
[27] = target: Protein kinase C delta type (Homo sapiens, UniProt Q05655); test: PKCdelta(PRKDPFP1) Takeda global kinase panel
[28] = target: Casein kinase I isoform gamma-3 (Homo sapiens, UniProt Q9Y6M4); test: CK1gamma3(C1G3LGI5) Takeda global kinase panel
Chain of Casein kinase I isoform gamma-3 (Q9Y6M4 whole entry, canonical isoform): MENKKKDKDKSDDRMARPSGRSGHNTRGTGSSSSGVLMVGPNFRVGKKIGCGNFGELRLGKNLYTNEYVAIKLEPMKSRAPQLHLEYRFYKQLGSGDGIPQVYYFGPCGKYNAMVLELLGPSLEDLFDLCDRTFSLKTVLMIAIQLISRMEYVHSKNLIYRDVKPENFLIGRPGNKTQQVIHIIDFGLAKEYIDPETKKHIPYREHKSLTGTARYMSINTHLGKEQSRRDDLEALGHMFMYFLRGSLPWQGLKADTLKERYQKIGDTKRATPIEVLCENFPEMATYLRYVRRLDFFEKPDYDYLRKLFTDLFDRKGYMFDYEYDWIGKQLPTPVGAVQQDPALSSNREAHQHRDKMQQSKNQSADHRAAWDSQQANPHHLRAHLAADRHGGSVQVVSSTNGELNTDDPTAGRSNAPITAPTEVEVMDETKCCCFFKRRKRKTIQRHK

[29] = target: G protein-coupled receptor kinase 4 (Homo sapiens, UniProt P32298); test: GRK4(GRK4LGRI) Takeda global kinase panel
[30] = target: Serine/threonine-protein kinase tousled-like 1 (Homo sapiens, UniProt Q9UKI8); test: TLK1(TLK1LGP1) Takeda global kinase panel
[31] = target: Non-receptor tyrosine-protein kinase TNK1 (Homo sapiens, UniProt Q13470); test: Tnk1(TNK1LGY1) Takeda global kinase panel
[32] = target: Acetylcholine receptor subunit alpha (Homo sapiens) (UniProt P02708); test: Inhibition of Nicotinic Acetylcholine D1, Bungarotoxin at 10 µM in the Eurofins-Panlabs radioligand binding assay (Eurofins_assay_258700); conditions: Compound concentration 10.0 uM
[33] = target: Activin receptor type-2A (Homo sapiens, UniProt P27037); test: ACtR2(AC2ALGE1) Takeda global kinase panel
[34] = target: Alpha-2B adrenergic receptor (Homo sapiens, UniProt P18089); test: GPCRScan assay: inhibition of Alpha2B; design: radioligand conc. used [nm] 1.5 – 2.0, parental cells HEKT
Chain of Alpha-2B adrenergic receptor (P18089 whole entry): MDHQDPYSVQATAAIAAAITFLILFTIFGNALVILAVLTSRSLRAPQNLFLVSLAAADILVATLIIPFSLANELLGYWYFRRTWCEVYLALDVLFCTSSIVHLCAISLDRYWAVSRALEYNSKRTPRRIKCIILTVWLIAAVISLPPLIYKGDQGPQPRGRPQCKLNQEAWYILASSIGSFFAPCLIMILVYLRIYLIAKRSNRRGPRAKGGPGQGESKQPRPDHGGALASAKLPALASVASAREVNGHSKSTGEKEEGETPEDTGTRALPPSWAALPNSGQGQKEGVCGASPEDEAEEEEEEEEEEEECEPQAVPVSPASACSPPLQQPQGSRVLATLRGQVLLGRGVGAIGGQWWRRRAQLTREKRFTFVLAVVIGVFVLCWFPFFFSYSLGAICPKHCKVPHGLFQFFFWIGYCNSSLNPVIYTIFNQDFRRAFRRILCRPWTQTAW

[35] = target: D(1B) dopamine receptor (Homo sapiens) (UniProt P21918); conditions: Compound concentration 10.0 uM
[36] = target: Serine/threonine-protein kinase 33 (Homo sapiens, UniProt Q9BYT3); test: STK33(ST33LGF1) Takeda global kinase panel
[37] = target: cAMP-dependent protein kinase catalytic subunit alpha (Homo sapiens, UniProt P17612); test: PKAalpha(PRCALGH1) Takeda global kinase panel
[38] = target: Homeodomain-interacting protein kinase 4 (Homo sapiens, UniProt Q8NE63); test: HIPK4(HIP4LHY1) Takeda global kinase panel
Chain of Homeodomain-interacting protein kinase 4 (Q8NE63 whole entry): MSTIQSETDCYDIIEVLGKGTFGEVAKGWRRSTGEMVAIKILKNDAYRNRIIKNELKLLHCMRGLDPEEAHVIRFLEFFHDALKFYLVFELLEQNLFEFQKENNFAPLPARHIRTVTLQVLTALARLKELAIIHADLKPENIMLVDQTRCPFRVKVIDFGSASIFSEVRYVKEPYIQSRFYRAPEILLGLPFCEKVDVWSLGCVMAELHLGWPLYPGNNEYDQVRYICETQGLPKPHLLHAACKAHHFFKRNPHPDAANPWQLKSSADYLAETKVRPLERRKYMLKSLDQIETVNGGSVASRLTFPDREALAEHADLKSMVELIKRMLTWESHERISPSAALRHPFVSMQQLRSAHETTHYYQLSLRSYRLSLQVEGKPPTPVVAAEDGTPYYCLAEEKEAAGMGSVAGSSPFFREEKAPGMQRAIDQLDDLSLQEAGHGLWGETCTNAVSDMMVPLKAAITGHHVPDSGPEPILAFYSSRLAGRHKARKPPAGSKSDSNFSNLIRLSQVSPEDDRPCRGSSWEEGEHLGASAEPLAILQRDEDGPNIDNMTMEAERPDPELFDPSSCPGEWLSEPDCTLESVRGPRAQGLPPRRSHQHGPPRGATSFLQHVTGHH

[39] = target: Serine/threonine-protein kinase Sgk2 (Homo sapiens, UniProt Q9HBY8); test: SGK2(SGK2LGE5) Takeda global kinase panel
[40] = target: Cyclin-dependent kinase 1 (Homo sapiens, UniProt P06493); test: CDC2 [CDK1(CDK1CGS1)] Takeda global kinase panel
[41] = target: Histamine H2 receptor (Homo sapiens) (UniProt P25021); conditions: Compound concentration 10.0 uM
Chain of Histamine H2 receptor (Homo sapiens) (P25021 whole entry): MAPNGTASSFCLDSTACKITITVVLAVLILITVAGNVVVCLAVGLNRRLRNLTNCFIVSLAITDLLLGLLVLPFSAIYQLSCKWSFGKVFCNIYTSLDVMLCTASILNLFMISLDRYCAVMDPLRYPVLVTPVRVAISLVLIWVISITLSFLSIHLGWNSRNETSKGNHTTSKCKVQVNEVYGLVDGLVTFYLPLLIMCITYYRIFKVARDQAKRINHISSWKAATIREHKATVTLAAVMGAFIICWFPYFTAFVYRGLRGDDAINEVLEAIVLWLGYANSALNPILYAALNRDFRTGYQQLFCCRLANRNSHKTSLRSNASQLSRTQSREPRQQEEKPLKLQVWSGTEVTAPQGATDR

[42] = target: Serine/threonine-protein kinase ICK (Homo sapiens, UniProt Q9UPZ9); test: ICK(ICK1LGP1) Takeda global kinase panel
[43] = target: Serine/threonine-protein kinase VRK1 (Homo sapiens, UniProt Q99986); test: VRK1(VRK1LGRI) Takeda global kinase panel
Chain of Serine/threonine-protein kinase VRK1 (Q99986 whole entry): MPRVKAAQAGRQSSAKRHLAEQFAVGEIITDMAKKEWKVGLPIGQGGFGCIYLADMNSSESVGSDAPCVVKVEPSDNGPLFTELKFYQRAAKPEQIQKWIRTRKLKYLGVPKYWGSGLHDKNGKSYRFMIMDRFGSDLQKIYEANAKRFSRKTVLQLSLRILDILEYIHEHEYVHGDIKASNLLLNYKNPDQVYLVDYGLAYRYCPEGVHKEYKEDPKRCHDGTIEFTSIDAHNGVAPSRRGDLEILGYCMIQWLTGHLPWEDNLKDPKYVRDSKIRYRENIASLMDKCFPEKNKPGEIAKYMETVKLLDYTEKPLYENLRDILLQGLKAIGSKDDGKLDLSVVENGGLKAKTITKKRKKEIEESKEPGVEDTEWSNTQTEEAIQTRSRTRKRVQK

[44] = target: Interleukin-1 receptor-associated kinase 4 (Homo sapiens, UniProt Q9NWZ3); test: IRAK4(IRK4LGF1) Takeda global kinase panel
[45] = target: Calcium/calmodulin-dependent protein kinase type IV (Homo sapiens, UniProt Q16566); test: CaMK4(CAM4LGY1) Takeda global kinase panel

With `CN1C(=O)[C@@H](N2CCc3c(nn(Cc4ccccc4)c3Br)C2=O)COc2ccccc21` [TP-030-2] the IC50 [1] was 1000 nM, the inhibition at 3 h, 10 µM [2] was 16% (not active) and the IC50 [3] was 1000 nM. The Ki [4] was 347 nM, the pKi [4] was 6.465 and the IC50 [5] was 1000 nM. The IC50 [6] was 1000 nM, the inhibition [7] was -4.12% and the IC50 [8] was 1000 nM. It also gave an inhibition [9] of 37.7%, an inhibition [10] of 2.4% and an IC50 [11] of 1000 nM. It also gave an IC50 [12] of 1000 nM, an IC50 [13] of 1000 nM and an IC50 [14] of 1000 nM. It also gave an inhibition [15] of 2%, an IC50 [16] of 1000 nM and an inhibition [17] of 7%. It also gave an IC50 [18] of 1000 nM, an inhibition [19] of 11.2% and an IC50 [20] of 1000 nM. The IC50 [21] was 1000 nM, the IC50 [22] was 1000 nM and the IC50 [23] was 1000 nM. It also gave an inhibition [24] of 8%, an IC50 [25] of 1000 nM and an inhibition [26] of -4%. The IC50 [27] was 1000 nM, the IC50 [28] was 1000 nM and the IC50 [29] was 1000 nM. For the same compound, the IC50 [30] was 1000 nM, the IC50 [31] was 1000 nM and the inhibition [32] was -2%. For the same compound, the IC50 [33] was 1000 nM, the Ki ([34]; read-out: Ki) was 2870 nM and the Ki ([34]; read-out: pKi (converted)) was 2820 nM. It also gave an inhibition [35] of 41.7%, an IC50 [36] of 1000 nM and an IC50 [37] of 1000 nM. The IC50 [38] was 1000 nM, the IC50 [39] was 1000 nM and the IC50 [40] was 1000 nM. The inhibition [41] was -8%, the IC50 [42] was 1000 nM and the IC50 [43] was 1000 nM. The IC50 [44] was 1000 nM and the IC50 [45] was 1000 nM.
